In PubChem BioAssay (NCI):
“And” between values parts separate entries of the source, which are not always exact repeats. Equal entries are not always repeated.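 All cell lines were grown in 96-well plates and treated with compound for 48 hours. The concentration for 50% growth inhibition is given as GI50. TGI denotes the concentration required for complete inhibition of growth.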

Key:
Test in all cases: NCI anticancer screen, dose series, 48 h
BT-549 breast = system: BT-549 breast
DU-145 prostate = system: DU-145 prostate
HCT-116 colon = system: HCT-116 colon
MDA-MB-231 breast = system: MDA-MB-231 breast
MOLT-4 leukemia = system: MOLT-4 leukemia
NCI/ADR-RES ovarian = system: NCI/ADR-RES ovarian
OVCAR-4 ovarian = system: OVCAR-4 ovarian
SNB-19 CNS = system: SNB-19 CNS
SR leukemia = system: SR leukemia
UACC-62 melanoma = system: UACC-62 melanoma

Compound | GI50 (BT-549 breast) | TGI (BT-549 breast) [µM] | GI50 (DU-145 prostate) [µM] | TGI (DU-145 prostate) [µM] | GI50 (HCT-116 colon) | TGI (HCT-116 colon) [µM] | GI50 (MDA-MB-231 breast) | TGI (MDA-MB-231 breast) [µM] | GI50 (MOLT-4 leukemia) [µM] | TGI (MOLT-4 leukemia) [µM] | GI50 (NCI/ADR-RES ovarian) | TGI (NCI/ADR-RES ovarian) [µM] | GI50 (OVCAR-4 ovarian) [µM] | TGI (OVCAR-4 ovarian) [µM] | GI50 (SNB-19 CNS) | TGI (SNB-19 CNS) [µM] | GI50 (SR leukemia) | TGI (SR leukemia) [µM] | GI50 (UACC-62 melanoma) | TGI (UACC-62 melanoma) [µM]
Cc1nnc(C[C@@H]2C=C(c3ccc(Cl)cc3)c3ccccc3-n3c(C)nnc32)o1 | 1.48 µM | 29.2 | 17.6 | > 100 | 0.472 µM | 31.9 | 1.5 µM | > 100 | 8.35 | > 100 | 1.86 µM | 43.7 | 1.29 | > 100 | 5.53 µM | > 100 | 0.27 µM | > 70.6 | 0.118 µM | 18.9
C[C@@H]1CC[C@H]2[C@@H](C)C(O)O[C@@H]3O[C@]4(C)CC[C@@H]1[C@]32OO4 (some centres not stated) | 0.721 µM | 45.4 | 5.27 | 17.4 | 0.141 µM | 3.55 | 6.16 µM | > 56.8 | 0.34 | 10.5 | 0.581 µM | 12 | 2.43 | > 56.7 | 3.39 µM | > 72.6 | 0.199 µM | 0.898 | 0.56 µM | > 76.9
CCOC(=O)C1(CC(=O)O)CCCC1=O (configuration not stated) | – | > 100 | – | > 100 | – | > 100 | – | > 100 | – | > 100 | – | > 100 | – | > 100 | – | > 100 | – | > 100 | – | > 100
N#C/C(=C\c1ccc(O)c(O)c1)C(=O)NCc1ccc(C(F)(F)F)cc1 | 10.6 µM | > 53.7 | 16.3 | > 62.3 | 2.58 µM | 11.4 | 2.08 µM | 18.1 | 3.92 | 31.7 | 5.19 µM | 24.7 | 13.3 | > 71.9 | 11.2 µM | > 68 | 2.47 µM | 6 | 4.25 µM | 13.9
Cc1cc(=O)oc2c(C3=NN(C=O)C(c4ccccc4)C3)c(O)ccc12 (configuration not stated) | – | > 100 | – | > 100 | – | > 100 | – | > 100 | – | > 100 | – | > 100 | – | > 100 | – | > 91.2 | – | > 100 | – | > 100
Cc1cc(F)c(C(=O)Nc2cccc(-c3nncn3C(C)C)n2)cc1-n1cnc(C2CC2)c1 | 11.7 µM | 54.8 | – | > 100 | 8.25 µM | > 100 | 18.1 µM | 91.5 | 10.1 | 54.2 | 17.7 µM | 93.2 | 13.1 | 97 | 25.5 µM | > 100 | 4.42 µM | > 100 | 14.1 µM | 48
O=C(NC1CCN(Cc2ccccc2)CC1)c1cc(-c2cccnc2)nc2ccc(Cl)cc12 | 24.8 µM | > 100 | 8.78 | > 100 | 5.47 µM | 26.4 | 2.47 µM | 13.1 | 3.05 | 9.82 | 15.6 µM | > 100 | 9.01 | 68.5 | 11.6 µM | 42.3 | 2.71 µM | 12.9 | 17.4 µM | > 100
CC(=O)N[C@H](C)[C@@H](O)[C@@H](C)[C@@H]1OC(=O)/C=C/C=C(C)\C=C\[C@]2(C)C[C@@H](NS(C)(=O)=O)C=C[C@@H]2/C=C(C)/C=C/[C@H]1C | 0.00898 µM and 0.0242 µM | > 43.5 | – | > 43.5 | 0.00172 µM and 0.00435 µM | > 43.5 | 0.00125 µM and 0.0046 µM | – | > 43.5 | > 43.5 | 0.235 µM and 0.127 µM | > 43.5 | 25.2 | > 43.5 | 0.039 µM and 0.0228 µM | > 43.5 | 0.00606 µM and 0.00719 µM | > 43.5 | 0.00725 µM and 0.0278 µM | > 43.5
Oc1ccc(NC(=S)Nc2ccccc2)cc1 | > 100 µM | > 100 | > 100 | > 100 | > 100 µM | > 100 | > 100 µM | > 100 | > 100 | > 100 | > 100 µM | > 100 | > 100 | > 100 | > 100 µM | > 100 | > 100 µM | > 100 | > 100 µM | > 100
Cc1cc(S(=O)(=O)/N=C(\N)Nc2cccc(O)c2)c(SCc2ccccc2)cc1Cl | 19 µM | 39.7 | 24.4 | 81.8 | 12.6 µM | 34 | 16.8 µM | 41.2 | 9.06 | > 100 | 26.5 µM | 70.2 | 12.1 | 45.1 | 20.6 µM | 58.9 | 16.2 µM | > 100 | 14.1 µM | 30.2
C=C1CCC2CC1C(C(=O)c1c[nH]c3ccccc13)=NC2(C)C (configuration not stated) | – | > 100 | – | > 100 | – | > 100 | – | > 100 | – | > 100 | – | > 100 | – | > 100 | – | > 100 | – | > 100 | – | > 100
